The target of assay [1] is T1, ENPP3 (Homo sapiens, UniProt O14638).
T1 sequence (O14638 1-875): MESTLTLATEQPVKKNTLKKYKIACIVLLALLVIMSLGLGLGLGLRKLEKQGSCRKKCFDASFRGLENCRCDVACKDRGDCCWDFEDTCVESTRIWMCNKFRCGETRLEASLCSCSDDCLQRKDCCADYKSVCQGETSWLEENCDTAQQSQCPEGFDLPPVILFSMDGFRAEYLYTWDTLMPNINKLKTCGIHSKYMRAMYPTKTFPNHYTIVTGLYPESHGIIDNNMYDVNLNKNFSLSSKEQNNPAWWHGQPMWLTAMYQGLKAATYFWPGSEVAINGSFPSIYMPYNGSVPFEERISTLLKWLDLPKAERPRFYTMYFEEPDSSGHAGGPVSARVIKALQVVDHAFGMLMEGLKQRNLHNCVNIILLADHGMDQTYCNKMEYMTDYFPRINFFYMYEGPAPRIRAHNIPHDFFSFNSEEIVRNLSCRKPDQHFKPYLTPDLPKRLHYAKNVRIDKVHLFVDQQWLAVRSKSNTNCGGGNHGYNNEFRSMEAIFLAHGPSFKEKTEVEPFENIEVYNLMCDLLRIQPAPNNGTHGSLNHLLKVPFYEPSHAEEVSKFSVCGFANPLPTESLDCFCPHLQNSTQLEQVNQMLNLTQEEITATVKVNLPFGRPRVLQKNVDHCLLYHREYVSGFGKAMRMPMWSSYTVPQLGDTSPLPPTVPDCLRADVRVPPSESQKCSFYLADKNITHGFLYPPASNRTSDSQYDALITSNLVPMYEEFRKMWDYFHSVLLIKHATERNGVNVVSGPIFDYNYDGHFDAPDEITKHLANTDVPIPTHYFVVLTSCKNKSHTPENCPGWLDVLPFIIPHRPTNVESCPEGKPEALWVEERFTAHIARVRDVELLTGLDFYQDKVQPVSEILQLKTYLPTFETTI
In words: ENPP3 Km ATP assay. Format: biochemical. The note with it: ATP at Km.

Assay [2] deals with T2, human ENPP1 (Homo sapiens, UniProt P22413).
T2 construct: made in house
T2 sequence (P22413 1-925): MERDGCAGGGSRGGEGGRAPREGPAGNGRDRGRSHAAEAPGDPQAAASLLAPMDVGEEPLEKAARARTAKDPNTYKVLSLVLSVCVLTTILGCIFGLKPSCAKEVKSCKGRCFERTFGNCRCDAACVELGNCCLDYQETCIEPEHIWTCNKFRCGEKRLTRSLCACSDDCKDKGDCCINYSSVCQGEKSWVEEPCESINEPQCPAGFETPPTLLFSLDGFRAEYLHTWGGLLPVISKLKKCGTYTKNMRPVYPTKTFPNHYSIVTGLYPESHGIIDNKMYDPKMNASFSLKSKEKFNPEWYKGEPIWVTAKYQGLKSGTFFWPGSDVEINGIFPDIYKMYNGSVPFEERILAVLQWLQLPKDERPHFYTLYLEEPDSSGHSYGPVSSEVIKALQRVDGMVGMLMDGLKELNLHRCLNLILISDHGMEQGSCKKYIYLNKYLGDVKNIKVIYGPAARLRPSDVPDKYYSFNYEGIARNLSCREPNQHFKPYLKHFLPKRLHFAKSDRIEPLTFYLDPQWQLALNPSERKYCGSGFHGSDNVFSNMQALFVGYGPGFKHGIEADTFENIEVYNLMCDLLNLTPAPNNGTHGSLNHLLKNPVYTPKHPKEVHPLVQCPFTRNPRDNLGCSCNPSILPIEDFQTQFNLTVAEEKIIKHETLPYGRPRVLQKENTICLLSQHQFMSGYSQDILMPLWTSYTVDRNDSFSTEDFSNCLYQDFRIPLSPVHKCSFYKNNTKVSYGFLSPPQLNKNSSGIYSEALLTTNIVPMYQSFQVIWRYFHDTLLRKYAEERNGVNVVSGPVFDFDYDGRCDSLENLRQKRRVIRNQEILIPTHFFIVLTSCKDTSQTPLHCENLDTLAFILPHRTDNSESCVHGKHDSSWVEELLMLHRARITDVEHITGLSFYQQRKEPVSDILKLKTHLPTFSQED
In words: ENPP1 assay with ATP substrate (Transcreener AMP2/GMP2 TR-FRET). It counts as biochemical. The note with it: 1 hour at room temperature. The gist of the method: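 5′-AMP from ATP hydrolysis (300 nM ATP stock added; enzyme added as 8.5 μM stock) detected by competitive TR-FRET. Buffer: 50 mM Tris pH 7.5, 1 mM TCEP, 2 mM MgCl2, 0.005% Tween 20, 1% DMSO. Reaction 1 h at room temperature, EDTA stop. IC50 from 2-parameter variable-slope fit.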

For `CCNc1nc(NCc2ccc(S(N)(=O)=O)cn2)c2cnn(C)c2n1` [Example 2.139, 6-(((6-(Ethylamino)-1-methyl-1H-pyrazolo[3,4-d]pyrimidin-4-yl)amino)methyl)pyridine-3-sulfonamide], the IC50 in assay [1] and in assay [2] was 1 to 20 µM each time.
As to `Cn1ncc2c(NCc3ccc(S(N)(=O)=O)cc3F)nc(Cl)nc21` [Example 2.140, 4-(((6-Chloro-1-methyl-1H-pyrazolo[3,4-d]pyrimidin-4-yl)amino)methyl)-3-fluorobenzenesulfonamide], the IC50 in assay [1] and in assay [2] was 0.1 to 1 µM throughout.
For the compound `CCNc1nc(NCc2ccc(S(N)(=O)=O)cc2F)c2cnn(C)c2n1` [Example 2.141, 4-(((6-(Ethylamino)-1-methyl-1H-pyrazolo[3,4-d]pyrimidin-4-yl)amino)methyl)-3-fluorobenzenesulfonamide], the IC50 in assay [1] and in assay [2] was 0.1 to 1 µM in each case.
As to `Cn1ncc2c(NCc3ccc(S(N)(=O)=O)cn3)cc(Cl)nc21` [Example 2.142, 6-(((6-Chloro-1-methyl-1H-pyrazolo[3,4-b]pyridin-4-yl)amino)methyl)pyridine-3-sulfonamide], the results for the IC50 in assay [1] and in assay [2] were 0.1 to 1 µM and less than 0.1 µM, respectively.
With `Cn1ncc2c(NCc3ccc(S(N)(=O)=O)cc3F)cc(Cl)nc21` [Example 2.143, 4-(((6-Chloro-1-methyl-1H-pyrazolo[3,4-b]pyridin-4-yl)amino)methyl)-3-fluorobenzenesulfonamide], the IC50 in assay [1] and in assay [2] was less than 0.1 µM each time.
Consider `CCNc1cc(NCc2ccc(S(N)(=O)=O)cc2F)c2cnn(C)c2n1` [Example 2.144, 4-(((6-(Ethylamino)-1-methyl-1H-pyrazolo[3,4-b]pyridin-4-yl)amino)methyl)-3-fluorobenzenesulfonamide], for which the IC50 in assay [1] and in assay [2] was 0.1 to 1 µM in each case.
In the case of `Cc1csc2c(N3CCC(NCc4ccccc4)CC3)ncnc12` [Example 3.0, N-Benzyl-1-(7-methylthieno[3,2-d]pyrimidin-4-yl)piperidin-4-amine], the IC50 was more than 20 µM in assay [1] and 0.1 to 1 µM in assay [2].
On to `Cc1csc2c(N3CCC(NCCCc4ccncc4)CC3)ncnc12` [Example 3.1, 1-(7-Methylthieno[3,2-d]pyrimidin-4-yl)-N-(3-(pyridin-4-yl)propyl)piperidin-4-amine], for which the IC50 in assay [1] is more than 20 µM; in assay [2] it was 0.1 to 1 µM.
`Cc1csc2c(N3CCC(NCc4ccncc4)CC3)ncnc12` [Example 3.2, 1-(7-Methylthieno[3,2-d]pyrimidin-4-yl)-N-(pyridin-4-ylmethyl)piperidin-4-amine]: the figures for the IC50 in assay [1] and in assay [2] were more than 20 µM and 1 to 20 µM, respectively.
For `Cc1csc2c(N3CCC(NCCCc4ccccn4)CC3)ncnc12` [Example 3.3, 1-(7-Methylthieno[3,2-d]pyrimidin-4-yl)-N-(3-(pyridin-2-yl)propyl)piperidin-4-amine], the half-inhibitory concentration (IC50) in assay [1] was more than 20 µM; in assay [2], 0.1 to 1 µM.
`Cc1ccc(CCCNC2CCN(c3ncnc4c(C)csc34)CC2)cc1` [Example 3.4, 1-(7-Methylthieno[3,2-d]pyrimidin-4-yl)-N-(3-(p-tolyl)propyl)piperidin-4-amine]: the IC50 in assay [1] is more than 20 µM; in assay [2], 0.1 to 1 µM.
In the same order, the values of `Cc1csc2c(N3CCC(NCCCc4ccc(F)cc4)CC3)ncnc12` [Example 3.5, N-(3-(4-Fluorophenyl)propyl)-1-(7-methylthieno[3,2-d]pyrimidin-4-yl)piperidin-4-amine] are more than 20 µM and 0.1 to 1 µM.
For the compound `Cc1csc2c(N3CCC(NCCCc4ccc(C#N)cc4)CC3)ncnc12` [Example 3.6, 4-(3-((1-(7-Methylthieno[3,2-d]pyrimidin-4-yl)piperidin-4-yl)amino)propyl)benzonitrile], the IC50 in assay [1] was more than 20 µM; in assay [2] it was 0.1 to 1 µM.
The matching figures for `Cc1csc2c(N3CCN(CCCCc4ccncc4)CC3)ncnc12` [Example 3.7, 7-Methyl-4-(4-(4-(pyridin-4-yl)butyl)piperazin-1-yl)thieno[3,2-d]pyrimidine]: more than 20 µM and 1 to 20 µM.
As for `COc1cc(CCC(=O)NC2CCN(c3ncnc4c(C)csc34)CC2)ccn1` [Example 3.8], the IC50 in assay [1] is more than 20 µM; in assay [2], 1 to 20 µM.
On to `Cc1csc2c(N3CCC(NC(=O)CCc4ccnc(Br)c4)CC3)ncnc12` [Example 3.9], for which the IC50 in assay [1] was more than 20 µM; in assay [2], 1 to 20 µM.
In the same order, the values of `Cc1csc2c(N3CCC(NC(=O)/C=C/c4ccncc4Cl)CC3)ncnc12` [Example 3.11, (E)-3-(3-Chloropyridin-4-yl)-N-(1-(7-methylthieno[3,2-d]pyrimidin-4-yl)piperidin-4-yl)acrylamide] are more than 20 µM and 1 to 20 µM.
Turning to `Cc1csc2c(N3CCC(NCCCc4cccc(C(F)(F)F)c4)CC3)ncnc12` [Example 3.12, 1-(7-Methylthieno[3,2-d]pyrimidin-4-yl)-N-(3-(3-(trifluoromethyl)phenyl)propyl)piperidin-4-amine], the IC50 was more than 20 µM in assay [1] and 0.1 to 1 µM in assay [2].
The matching figures for `Cc1csc2c(N3CCC(NCCCc4ccncc4Cl)CC3)ncnc12` [Example 3.13, N-(3-(3-Chloropyridin-4-yl)propyl)-1-(7-methylthieno[3,2-d]pyrimidin-4-yl)piperidin-4-amine]: more than 20 µM and 0.1 to 1 µM.
For the compound `Cc1ccccc1CCC(=O)NC1CCN(c2ncnc3c(C)csc23)CC1` [Example 3.14, N-(1-(7-Methylthieno[3,2-d]pyrimidin-4-yl)piperidin-4-yl)-3-(o-tolyl)propanamide], the IC50 in assay [1] and in assay [2] was more than 20 µM in each case.
Consider `Cc1cccc(CCC(=O)NC2CCN(c3ncnc4c(C)csc34)CC2)c1` [Example 3.15, N-(1-(7-Methylthieno[3,2-d]pyrimidin-4-yl)piperidin-4-yl)-3-(m-tolyl)propanamide], for which the IC50 in assay [1] and in assay [2] was more than 20 µM in each case.
As to `Cc1ccccc1CCCNC1CCN(c2ncnc3c(C)csc23)CC1` [Example 3.16, 1-(7-Methylthieno[3,2-d]pyrimidin-4-yl)-N-(3-(o-tolyl)propyl)piperidin-4-amine], the IC50 in assay [1] was more than 20 µM; in assay [2], 0.1 to 1 µM.
Regarding `Cc1cccc(CCCNC2CCN(c3ncnc4c(C)csc34)CC2)c1` [Example 3.17, 1-(7-Methylthieno[3,2-d]pyrimidin-4-yl)-N-(3-(m-tolyl)propyl)piperidin-4-amine], the IC50 in assay [1] fell in the range of 1 to 20 µM; in assay [2], 0.1 to 1 µM.
For the compound `Cc1csc2c(N3CCC(NC(=O)CCc4cccc(Cl)c4)CC3)ncnc12` [Example 3.18, 3-(3-Chlorophenyl)-N-(1-(7-methylthieno[3,2-d]pyrimidin-4-Y)piperidin-4-yl)propanamide], the IC50 in assay [1] and in assay [2] was more than 20 µM throughout.
On to `Cc1csc2c(N3CCC(NCCCc4cccc(Cl)c4)CC3)ncnc12` [Example 3.19, N-(3-(3-Chlorophenyl)propyl)-1-(7-methylthieno[3,2-d]pyrimidin-4-yl)piperidin-4-amine], for which the IC50 in assay [1] was more than 20 µM; in assay [2] it was 0.1 to 1 µM.

For the origin of these results see US12643910B2, “Substituted pyrazolo[3,4-b]pyridines as ectonucleotide pyrophosphatase/phosphodiesterase 1 (ENPP1) modulators” (SANFORD BURNHAM PREBYS MEDICAL DISCOVERY INSTITUTE, priority 2019, dated 2026).
